Peptide text beside a SMILES is read from it. * marks the point of attachment. Cbz = O=C(OCc1ccccc1)*; CH2F = FC*
Legend:
caspase-9 GFPspark [1] = target: T1, caspase-9 GFPspark (Homo sapiens, UniProt P55211); assay: AbRGT FRET imaging / acceptor photobleaching, caspase-9 GFPspark in HEK-293 cells; type: cell-based
T1 construct: host or cells: MCF-7, HEK-293
T1 sequence (P55211 1-416): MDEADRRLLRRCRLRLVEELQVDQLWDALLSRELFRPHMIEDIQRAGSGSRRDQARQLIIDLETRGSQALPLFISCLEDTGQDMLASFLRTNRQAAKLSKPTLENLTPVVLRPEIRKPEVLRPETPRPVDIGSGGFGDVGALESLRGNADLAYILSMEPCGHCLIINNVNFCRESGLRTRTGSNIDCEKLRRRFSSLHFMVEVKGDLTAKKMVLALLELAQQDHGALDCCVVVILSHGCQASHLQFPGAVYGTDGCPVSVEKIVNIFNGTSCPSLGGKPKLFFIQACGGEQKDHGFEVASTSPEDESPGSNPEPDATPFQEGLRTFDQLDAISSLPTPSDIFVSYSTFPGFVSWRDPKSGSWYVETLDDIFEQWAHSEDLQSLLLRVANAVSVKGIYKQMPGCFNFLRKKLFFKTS
Method: FIGS. 17A and 17B depict specific detection of caspase-9 GFPspark in HEK-293 cells. Casp-9 GFPspark (1 μg) transfected HEK-293 cells were treated with STS (1 μM) for 4 h and labelled with the probe 1 (1 μM) for 2 h. […] The acceptor photobleaching was performed to confirm the FRET signal as described previously. The bar graph representing the rise in GFP intensity in ROI after rhodamine photobleaching was 75 a.u. as compared to the unbleached background, i.e., 10 a.u. FRET efficiency was calculated to be 35±2%.
Plasmids and transient transfection: GFPspark tagged plasmids; caspase-3 GFPspark tag (Cat: HG10050-ACG), caspase-7 GFPspark tag (HG10049-ACG), caspase-8 GFPspark (HG10078-ACG), caspase-9 GFPspark (HG11151-ACG) and cathepsin B GFPspark (HG10483-ACG) were procured from Sino Biological. For transfection, cells were seeded in a 6-well plate at a density of 0.4 million cells/well. […] 24 h post-transfection, cells were visualized under the GFP filter for GFPspark expression under fluorescence microscope at 10× magnification.
Labelling of active caspases in apoptotic cells with FABP: After 24 h of transfection, cells were treated with STS (1 μM) drug or TRAIL (1 μg/ml) for apoptotic induction and incubated for 2, 4, 6 and 8 h at 37° C. in a humidified atmosphere of 5% CO2/95% air. […] Slides were then imaged for GFP, FRET and rhodamine fluorescence signals under confocal microscopy. […]
Fluorescence imaging studies, FRET procedure: Images were collected on Zeiss LSM710 confocal microscope with 25 mW argon laser using Zen10 software. […] Images were collected in the three channels; GFP channel, argon laser tuned at 488 nm with 2% laser intensity and fluorescence emission was collected in emission range of 490-550 nm; rhodamine channel, argon laser tuned to 561 nm laser with 2% laser intensity and fluorescence emission was collected in range 550-650 nm and FRET channel with excitation laser of GFPSPARK channel and emission range of rhodamine channel. […]

caspase-9 GFPspark [2] = target: T1, caspase-9 GFPspark; assay: AbRGT FRET imaging / acceptor photobleaching, caspase-9 GFPspark in MCF-7 cells; type: cell-based
Method: FIG. 15 depicts confocal images of MCF-7 cells in GFP, FRET and Rh channel Caspase-7 GFPspark transfected MCF-7 cells were treated with STS (1 μM) for 6 h and labelled (a) (i) with probe 1 (1 μM) probe. Cells were pre-treated with (a) (ii) Z-VAD-FMK (50 μM) or (a) (iii) Q-VD-OPh (50 μM) pan-caspase inhibitors 1 h before the probe labelling. Caspase-9 GFPspark transfected MCF-7 cells were treated with STS (1 μM) for 4 h and labelled (b) (i) with probe 1 (1 μM) probe. Cells were pre-treated with (b) (ii) Z-VAD-FMK (50 μM) 1 h before probe labelling. Caspase-8 GFPspark overexpressing HEK-293 cells were treated with TRAIL (1 μg/ml) for 5 h and labelled (c) (i) with the probe 1. Cells were pre-treated with (c) (ii) Z-VAD-FMK (50 μM) 1 h before probe labelling.
FIG. 16 depicts specific detection of caspase-9 GFPspark in MCF-7 cells. Casp-9 GFPspark (1 μg) transfected MCF-7 cells were treated with STS (1 μM) for 4 h and labelled with the probe 1 (1 μM). Cells were fixed and the fluorescence signal was collected in GFP, FRET and Rh channels. The acceptor photobleaching experiment was carried out to confirm the FRET signal as described previously. Bar graph representing a rise in GFP intensity in ROI after rhodamine photobleaching was 63 a.u. as compared to the unbleached background, i.e., 8 a.u. FRET efficiency was calculated to be 30±1%.
Plasmids and transient transfection: GFPspark tagged plasmids; caspase-3 GFPspark tag (Cat: HG10050-ACG), caspase-7 GFPspark tag (HG10049-ACG), caspase-8 GFPspark (HG10078-ACG), caspase-9 GFPspark (HG11151-ACG) and cathepsin B GFPspark (HG10483-ACG) were procured from Sino Biological. For transfection, cells were seeded in a 6-well plate at a density of 0.4 million cells/well. At 60-70% confluency, cells were transiently transfected for 24 h at 37° C. with 1 μg of the GFPspark tagged plasmid DNA construct mixed with 5 μL of Lipofectamine 2000 (Invitrogen) according to the manufacturer's instructions. 24 h post-transfection, cells were visualized under the GFP filter for GFPspark expression under fluorescence microscope at 10× magnification.
Labelling of active caspases in apoptotic cells with FABP: After 24 h of transfection, cells were treated with STS (1 μM) drug or TRAIL (1 μg/ml) for apoptotic induction and incubated for 2, 4, 6 and 8 h at 37° C. in a humidified atmosphere of 5% CO2/95% air. Cells were gently scraped off from the surface at the end of apoptotic induction and centrifuged at 3000 rpm for 5 min. […] Slides were then imaged for GFP, FRET and rhodamine fluorescence signals under confocal microscopy. […]
Fluorescence imaging studies, FRET procedure: Images were collected on Zeiss LSM710 confocal microscope with 25 mW argon laser using Zen10 software. […]

[3] = HEK-293, STS 1 μM 4 h, probe 1 μM 2 h
[4] = MCF-7, STS 1 μM 4 h, probe 1 μM
[5] = MCF-7, inhibitor 50 μM, STS 4 h

## Rhodamine-VAD-fluoromethyl ketone [probe 1]
caspase-9 GFPspark [1]; [3]
  calculated FRET efficiency: 35±2%
  rise in GFP intensity in ROI after rhodamine photobleaching: 75 a.u.
caspase-9 GFPspark [2]; [4]
  calculated FRET efficiency: 30±1%
  rise in GFP intensity in ROI after rhodamine photobleaching: 63 a.u.

## COC(=O)C[C@H](NC(=O)[C@H](C)NC(=O)[C@@H](NC(=O)OCc1ccccc1)C(C)C)C(=O)CF [Z-VAD-FMK] (Cbz-Val-Ala-Asp(OMe)-CH2F)
caspase-9 GFPspark [1]; HEK-293, inhibitor 50 μM pre-treatment, STS 4 h
  effect of inhibitor on FRET signal: abolished
caspase-9 GFPspark [2]; [5]
  effect of inhibitor on signal in FRET channel: completely abolished
  effect of inhibitor on signal in Rh channel: completely abolished
